These results are taken from ChEMBL document CHEMBL2034916, “Thiourea compound AW00178 sensitizes human H1299 lung carcinoma cells to TRAIL-mediated apoptosis” (2012).

Active and inactive are the calls of the source. The rule behind the calls is not given here.

The test system of experiment [1] is NCI-H1299. The experiment can be described thus: Induction of apoptosis in human H1299 cells assessed as apoptotic cells at 5 uM after 48 hrs by annexinV/propidium iodide staining-based flow cytometric analysis (reference value: 1.35%). The class given is functional. For orientation: Flow cytometry measures light scatter and fluorescence of single cells or particles in a stream.

For experiment [2], the system named is NCI-H1299. The experiment can be described thus: Induction of apoptosis in human H1299 cells assessed as apoptotic cells at 5 uM after 48 hrs by annexinV/propidium iodide staining-based flow cytometric analysis in presence of 100 ug/ml TRAIL (reference value: 1.35%). The format is functional.
Experiment [3] can be described thus: Down regulation of AKT-mediated survivin expression in human H1299 cells at 5 to 10 uM after 24 hrs by Western blot analysis in presence of 100 ug/ml TRAIL. The format is cell-based. A general note: In western blotting, separated proteins are transferred to a membrane and probed.
Experiment [4] addresses T1, c-Jun N-terminal kinase, JNK (Homo sapiens) (UniProt P45983+P53779+P45984). The experiment can be described thus: Induction of JNK-mediated CHOP protein expression in human H1299 cells after 24 hrs by Western blot analysis. The class given is cell-based.
The subject of experiment [5] is NCI-H1299. The experiment can be described thus: Induction of TRAIL-mediated apoptosis in human H1299 cells assessed as caspase 8 activation at 5 to 10 uM after 24 hrs by fluorometric assay in presence of pan-caspase inhibitor Z-VAD-FMK. The class given is functional, cell-based.
A short description of experiment [6]: Down regulation of cIAP1 expression in human H1299 cells at 10 uM after 24 hrs by Western blot analysis in presence of 100 ug/ml TRAIL. Conditions: NCI-H1299. The format is functional, cell-based.
Experiment [7] can be described thus: Down regulation of XIAP expression in human H1299 cells at 5 to 10 uM after 24 hrs by Western blot analysis in presence of 100 ug/ml TRAIL. The format is functional, cell-based. Conditions: NCI-H1299.
Experiment [8] in a line: Down regulation of XIAP expression in human H1299 cells at 0.1 to 30 uM after 24 hrs by Western blot analysis in presence of 100 ug/ml TRAIL and PI3K inhibitor LY294002. The class given is functional, cell-based. Conditions: NCI-H1299.
Experiment [9] concerns the target T1, c-Jun N-terminal kinase, JNK (Homo sapiens). The experiment can be described thus: Induction of JNK-mediated c-Jun phosphorylation in human H1299 cells at 10 uM for 30 mins cotreated with TRAIL by Western blot analysis pretreated with 10 uM JNK inhibitor SP600125 for 1 hr. The format is cell-based.
Experiment [10] is described as follows: Upregulation of CHOP in human H1299 cells at 10 uM after 24 hrs by Western blot analysis in presence of 100 ug/ml TRAIL and pretreated with 10 uM JNK inhibition SP600125. The class given is functional, cell-based. Conditions: NCI-H1299.
In experiment [11] the test system is NCI-H1299. The experiment can be described thus: Induction of apoptosis in human H1299 cells assessed as apoptotic cells at 10 uM after 48 hrs by annexinV/propidium iodide staining-based flow cytometric analysis in presence of 100 ug/ml TRAIL (reference value: 1.35%). The format is functional.
For experiment [12], the system named is NCI-H1299. The experiment can be described thus: Induction of TRAIL-mediated apoptosis in human H1299 cells assessed as caspase 8 activation at 5 to 10 uM after 24 hrs by fluorometric assay. The format is functional, cell-based.
Experiment [13] concerns H1299. The experiment can be described thus: Inhibition of Akt phosphorylation in human H1299 cells at 5 to 10 uM after 24 hrs by Western blot analysis. The format is cell-based.
The test system of experiment [14] is NCI-H1299. The experiment can be described thus: Induction of apoptosis in human H1299 cells assessed as apoptotic cells at 10 uM after 48 hrs by annexinV/propidium iodide staining-based flow cytometric analysis (reference value: 1.35%). The class given is functional.
Experiment [15] in a line: Down regulation of Bcl-Xl expression in human H1299 cells at 10 uM after 24 hrs by Western blot analysis in presence of 100 ug/ml TRAIL. Conditions: NCI-H1299. The class given is functional, cell-based.
A short description of experiment [16]: Down regulation of XIAP expression in human H1299 cells at 5 to 10 uM after 24 hrs by Western blot analysis. The format is functional, cell-based. Conditions: NCI-H1299.
Experiment [17] deals with T1, c-Jun N-terminal kinase, JNK (Homo sapiens). The experiment can be described thus: Induction of JNK-mediated c-Jun phosphorylation in human H1299 cells at 5 to 10 uM after 24 hrs by Western blot analysis. The format is cell-based.
Experiment [18] is described as follows: Down regulation of cIAP2 expression in human H1299 cells at 10 uM after 24 hrs by Western blot analysis in presence of 100 ug/ml TRAIL. The class given is functional, cell-based. Conditions: NCI-H1299.
Experiment [19] in a line: Down regulation of XIAP expression in human H1299 cells at 0.1 to 30 uM after 24 hrs by Western blot analysis. The format is functional, cell-based. Conditions: NCI-H1299.
Experiment [20] can be described thus: Down regulation of AKT-mediated survivin expression in human H1299 cells at 5 to 10 uM after 24 hrs by Western blot analysis. The class given is cell-based.
Experiment [21] concerns NCI-H1299. The experiment can be described thus: Induction of DR5 protein expression in human H1299 cells after 24 hrs by Western blot analysis. The class given is functional, cell-based.
Experiment [22] addresses T1, c-Jun N-terminal kinase, JNK (Homo sapiens). The experiment can be described thus: Induction of JNK-mediated c-Jun phosphorylation in human H1299 cells at 5 to 10 uM after 24 hrs by Western blot analysis in presence of 100 ug/ml TRAIL. The format is cell-based.
In experiment [23] the test system is H1299. The experiment can be described thus: Inhibition of Akt phosphorylation in human H1299 cells at 5 to 10 uM after 24 hrs by Western blot analysis in presence of 100 ug/ml TRAIL. The format is cell-based.
The target of experiment [24] is T1, c-Jun N-terminal kinase, JNK (Homo sapiens). The experiment can be described thus: Induction of JNK-mediated CHOP expression in human H1299 cells at 0.1 to 30 uM after 24 hrs by Western blot analysis. The format is cell-based.
Experiment [25] deals with H1299. The experiment can be described thus: Inhibition of Akt in human H1299 cells assessed as decrease in survivin expression after 24 hrs by Western blot analysis. The format is cell-based.
Experiment [26] in a line: Down regulation of cIAP2 expression in human H1299 cells at 0.1 to 30 uM after 24 hrs by Western blot analysis in presence of 100 ug/ml TRAIL and PI3K inhibitor LY294002. The format is functional, cell-based. Conditions: NCI-H1299.
The test system of experiment [27] is NCI-H1299. The experiment can be described thus: Induction of DR5 expression in human H1299 cells at 0.1 to 30 uM after 24 hrs by Western blot analysis. The format is functional, cell-based.
Experiment [28] deals with H1299. The experiment can be described thus: Inhibition of Akt phosphorylation on human H1299 cells after 24 hrs by Western blot analysis. The format is cell-based.
Experiment [29] can be described thus: Down regulation of cIAP2 expression in human H1299 cells at 0.1 to 30 uM after 24 hrs by Western blot analysis. The class given is functional, cell-based. Conditions: NCI-H1299.

Regarding `Cc1ccc(Cl)cc1NC(=S)Nc1ccc(-n2nccc2C(F)(F)F)cc1`, the Activity in the experiment with NCI-H1299 [1] was 1.52%; in the experiment with NCI-H1299 [2] it was 6.59%; with NCI-H1299 [11] it was 39.4%; with NCI-H1299 [14] it was 3.25%. For the same compound, the result in [3], in experiment [4], in [6], in experiment [7], in [8] and in experiment [9] was Active. The outcome (with NCI-H1299 [12]; in [15]; in [16]; in experiment [17]; in [18]; in experiment [19]) was Active. For the same compound, the outcome (in experiment [20]; with NCI-H1299 [21]; in experiment [22]) was Active. Also, the outcome (with NCI-H1299 [5]; in experiment [10]) was inactive. The inhibition result in the experiment with H1299 [13] and in the experiment with H1299 [23] was “Active” each time.
Take `O=c1cc(N2CCOCC2)oc2c(-c3ccccc3)cccc12`: the result (in experiment [24]; with NCI-H1299 [27]) was inactive. For the same compound, the inhibition result in the experiment on H1299 [25] and in the experiment on H1299 [28] was “Dose-dependent effect” in each case. The outcome in experiment [26] and in experiment [29] was Active.
